C1=Cc2ccccc2Nc2ccccc21
solubility (mole fraction)
Settings | 278.15 K | 283.15 K | 288.15 K | 293.15 K | 298.15 K | 303.15 K | 308.15 K | 313.15 K | 318.15 K | 323.15 K
in 1,4-dioxane | – | – | 0.0312 | 0.0349 | 0.0392 | 0.0423 | 0.0481 | 0.052 | 0.058 | 0.0632
in DMAc | 0.113 | 0.122 | 0.13 | 0.139 | 0.149 | 0.159 | 0.17 | 0.179 | 0.192 | 0.203
in DMF | 0.109 | 0.116 | 0.122 | 0.129 | 0.136 | 0.144 | 0.153 | 0.161 | 0.169 | 0.178
in NMP | 0.219 | 0.223 | 0.23 | 0.239 | 0.246 | 0.251 | 0.257 | 0.265 | 0.273 | 0.281
in acetone | 0.0162 | 0.0178 | 0.0197 | 0.0219 | 0.0242 | 0.0268 | 0.0296 | 0.0327 | 0.0363 | 0.04
in acetonitrile | 0.00245 | 0.00298 | 0.00345 | 0.00412 | 0.00489 | 0.00575 | 0.00676 | 0.00782 | 0.00933 | 0.0108
in ethyl acetate | 0.01 | 0.0116 | 0.0133 | 0.015 | 0.0172 | 0.0193 | 0.0214 | 0.0243 | 0.0271 | 0.03
in isobutyl acetate | 0.0105 | 0.0119 | 0.0132 | 0.0146 | 0.0161 | 0.0184 | 0.0206 | 0.023 | 0.0257 | 0.0285
in isopropyl acetate | 0.00918 | 0.0104 | 0.0118 | 0.0133 | 0.0152 | 0.0168 | 0.0181 | 0.0202 | 0.0222 | 0.0249
in methyl acetate | 0.00825 | 0.0092 | 0.0102 | 0.0118 | 0.0132 | 0.015 | 0.017 | 0.0192 | 0.0215 | 0.0239
in n-butyl acetate | 0.0133 | 0.0152 | 0.0171 | 0.0189 | 0.0208 | 0.0236 | 0.0261 | 0.0289 | 0.0321 | 0.0362
in n-propyl acetate | 0.0126 | 0.0143 | 0.0157 | 0.0175 | 0.0194 | 0.0215 | 0.0239 | 0.0267 | 0.0299 | 0.0331

— BigSolDB 2.1
